Experiment [1] in a line: DRUGMATRIX: Sodium/nucleoside co-transporter radioligand binding (ligand: nitrobenzylthioinosine). The class given is cell membranes, Cavia porcellus, Dunkin-Hartley, Cerebral cortex, Membrane. The following applies: Not Active = under 50% inhibition at 10 µM.
In experiment [2] the target is Beta-3 adrenergic receptor (Homo sapiens, UniProt P13945). As to the kind of experiment: DRUGMATRIX: Adrenergic beta3 radioligand binding (ligand: [125I] Cyanopindolol). The following applies: hek293; Not Active = under 50% inhibition at 10 µM. The class given is cell membranes, HEK293, Membrane.
A short description of experiment [3]: DRUGMATRIX: beta-Lactamase enzyme inhibition (substrate: Nitrocefin). To be noted: Not Active = under 50% inhibition at 10 µM. The arrangement: species or system Bacillus cereus.
The target of experiment [4] is 5-hydroxytryptamine receptor 2B (Homo sapiens, UniProt P41595). The class given is cell membranes, CHO-K1, Membrane. The following applies: for IC50: cho-k1; for pIC50: read-out: IC50; for pKi: read-out: Ki. As to all read-outs here: in other assays of this panel Not Active means under 50% inhibition at 10 µM.
The target in experiment [5] is 5-hydroxytryptamine receptor 6 (Homo sapiens, UniProt P50406). The class given is cell membranes, HeLa, Membrane. To be noted: for IC50: hela. As to all read-outs here: in other assays of this panel Not Active means under 50% inhibition at 10 µM.
The target in the next experiment is T1, Thromboxane-A synthase (Homo sapiens, UniProt P24557).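 Also: enzyme inhibition assay with PGH2 supplied as substrate; in other assays of this panel Not Active means under 50% inhibition at 10 µM.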
T1 sequence (P24557 whole entry): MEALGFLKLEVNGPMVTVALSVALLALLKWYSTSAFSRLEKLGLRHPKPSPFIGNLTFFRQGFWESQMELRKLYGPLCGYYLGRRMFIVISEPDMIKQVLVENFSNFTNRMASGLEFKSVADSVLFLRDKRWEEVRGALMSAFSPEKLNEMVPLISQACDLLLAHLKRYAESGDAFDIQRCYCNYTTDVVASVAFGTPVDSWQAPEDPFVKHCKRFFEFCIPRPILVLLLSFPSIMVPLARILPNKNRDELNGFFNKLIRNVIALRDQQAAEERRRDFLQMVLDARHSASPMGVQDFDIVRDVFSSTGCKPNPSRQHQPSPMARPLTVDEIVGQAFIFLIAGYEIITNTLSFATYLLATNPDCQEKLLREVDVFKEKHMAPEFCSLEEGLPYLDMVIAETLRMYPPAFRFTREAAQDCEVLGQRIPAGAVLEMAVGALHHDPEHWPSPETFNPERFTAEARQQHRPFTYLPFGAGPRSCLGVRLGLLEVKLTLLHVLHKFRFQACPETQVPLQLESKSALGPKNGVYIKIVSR
As to the kind of experiment: biochemical. It is filed as tissue-based, Platelet. The following applies: platelet.

Experiment [6] concerns the target T2, C-X-C chemokine receptor type 1 (Homo sapiens, UniProt P25024). Also: in other assays of this panel Not Active means under 50% inhibition at 10 µM.
T2 sequence (P25024 whole entry): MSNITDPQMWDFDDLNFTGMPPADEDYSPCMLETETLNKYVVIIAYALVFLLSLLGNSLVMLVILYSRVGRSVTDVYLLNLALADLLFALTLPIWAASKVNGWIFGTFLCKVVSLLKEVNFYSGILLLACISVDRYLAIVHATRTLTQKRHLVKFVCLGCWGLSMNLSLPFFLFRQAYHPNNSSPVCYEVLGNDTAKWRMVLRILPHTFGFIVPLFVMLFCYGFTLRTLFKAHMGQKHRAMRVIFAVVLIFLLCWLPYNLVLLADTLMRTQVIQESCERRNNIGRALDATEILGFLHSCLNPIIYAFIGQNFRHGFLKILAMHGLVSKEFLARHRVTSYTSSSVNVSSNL

A further experiment has as its target D(3) dopamine receptor (Homo sapiens, UniProt P35462). As to the kind of experiment: DRUGMATRIX: Dopamine D3 radioligand binding (ligand: [3H] Spiperone). It is filed as cell membranes, CHO, Membrane. The following applies: for IC50: cho.
For another experiment, the target named is T3, D(4) dopamine receptor (Homo sapiens, UniProt P21917).
T3 sequence (P21917 whole entry): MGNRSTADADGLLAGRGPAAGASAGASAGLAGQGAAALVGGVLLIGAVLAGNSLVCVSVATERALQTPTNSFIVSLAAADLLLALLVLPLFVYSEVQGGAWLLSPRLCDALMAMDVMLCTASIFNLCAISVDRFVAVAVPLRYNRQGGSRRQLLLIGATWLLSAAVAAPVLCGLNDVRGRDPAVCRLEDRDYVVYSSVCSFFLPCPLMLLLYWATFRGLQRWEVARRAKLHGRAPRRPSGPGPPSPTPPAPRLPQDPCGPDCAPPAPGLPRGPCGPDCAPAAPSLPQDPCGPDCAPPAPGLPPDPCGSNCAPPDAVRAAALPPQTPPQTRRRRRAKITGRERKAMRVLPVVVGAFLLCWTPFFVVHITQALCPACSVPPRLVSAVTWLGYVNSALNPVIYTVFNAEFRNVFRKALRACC
As to the kind of experiment: DRUGMATRIX: Dopamine D4.2 radioligand binding (ligand: [3H] Spiperone). It is filed as cell membranes, CHO-K1, Membrane. To be noted: cho-k1; Not Active = under 50% inhibition at 10 µM.

Experiment [7] can be described thus: DRUGMATRIX: GABAA, Chloride Channel, TBOB radioligand binding (ligand: [3H] TBOB). It is filed as cell membranes, Rattus norvegicus, Wistar, Cerebral cortex, Membrane. The following applies: Not Active = under 50% inhibition at 10 µM.
Experiment [8] in a line: DRUGMATRIX: Glutamate, AMPA radioligand binding (ligand: [3H] AMPA). It is filed as cell membranes, Rattus norvegicus, Wistar, Cerebral cortex, Membrane. The following applies: Not Active = under 50% inhibition at 10 µM.
Experiment [9] can be described thus: DRUGMATRIX: Glutamate, Kainate radioligand binding (ligand: [3H] Kainic acid). It is filed as cell membranes, Rattus norvegicus, Wistar, Brain, Membrane. To be noted: Not Active = under 50% inhibition at 10 µM.
The next experiment has as its target Glycine receptor (Rattus norvegicus, UniProt P22771+P24524+P07727+P20781). It is filed as cell membranes, Wistar, Spinal cord, Membrane. Also: in other assays of this panel Not Active means under 50% inhibition at 10 µM.
The target in a further experiment is Histamine H2 receptor (Homo sapiens, UniProt P25021). It is filed as cell membranes, CHO-K1, Membrane. The following applies: for IC50: cho-k1.
Experiment [10] is described as follows: DRUGMATRIX: Imidazoline I2, Central radioligand binding (ligand: [3H] Idazoxan). To be noted: Not Active = under 50% inhibition at 10 µM. It is filed as cell membranes, Rattus norvegicus, Wistar, Cerebral cortex, Membrane.
A short description of experiment [11]: DRUGMATRIX: Platelet-Derived Growth Factor (PDGF) radioligand binding (ligand: [125I] PDGF). The class given is cell-based. The following applies: nih3t3; Not Active = under 50% inhibition at 10 µM.

pIC50, pKi: −log10 of the molar value.

Chain of D(3) dopamine receptor (P35462 whole entry): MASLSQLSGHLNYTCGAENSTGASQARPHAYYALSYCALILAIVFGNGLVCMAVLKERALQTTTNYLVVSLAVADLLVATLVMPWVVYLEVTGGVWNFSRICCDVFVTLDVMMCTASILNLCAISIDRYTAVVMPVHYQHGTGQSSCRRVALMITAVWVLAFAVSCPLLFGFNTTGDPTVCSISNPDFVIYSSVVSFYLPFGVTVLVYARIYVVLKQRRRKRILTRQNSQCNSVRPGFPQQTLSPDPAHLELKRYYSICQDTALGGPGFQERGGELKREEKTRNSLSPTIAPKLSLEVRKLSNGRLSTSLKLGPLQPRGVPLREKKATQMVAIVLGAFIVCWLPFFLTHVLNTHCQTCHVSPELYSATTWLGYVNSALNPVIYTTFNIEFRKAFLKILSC
Chain of 5-hydroxytryptamine receptor 6 (P50406 whole entry): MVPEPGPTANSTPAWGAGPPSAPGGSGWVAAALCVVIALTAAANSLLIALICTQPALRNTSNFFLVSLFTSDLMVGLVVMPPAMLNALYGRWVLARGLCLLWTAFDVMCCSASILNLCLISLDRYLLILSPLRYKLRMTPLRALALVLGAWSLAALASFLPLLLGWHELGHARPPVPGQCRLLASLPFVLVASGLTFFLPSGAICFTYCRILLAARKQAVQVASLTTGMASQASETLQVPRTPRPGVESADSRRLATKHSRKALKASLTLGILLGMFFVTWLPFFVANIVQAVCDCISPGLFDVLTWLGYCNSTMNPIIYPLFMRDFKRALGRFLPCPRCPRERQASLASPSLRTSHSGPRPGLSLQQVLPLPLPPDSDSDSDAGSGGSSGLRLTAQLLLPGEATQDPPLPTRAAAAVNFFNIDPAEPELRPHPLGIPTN
Chain of 5-hydroxytryptamine receptor 2B (P41595 whole entry): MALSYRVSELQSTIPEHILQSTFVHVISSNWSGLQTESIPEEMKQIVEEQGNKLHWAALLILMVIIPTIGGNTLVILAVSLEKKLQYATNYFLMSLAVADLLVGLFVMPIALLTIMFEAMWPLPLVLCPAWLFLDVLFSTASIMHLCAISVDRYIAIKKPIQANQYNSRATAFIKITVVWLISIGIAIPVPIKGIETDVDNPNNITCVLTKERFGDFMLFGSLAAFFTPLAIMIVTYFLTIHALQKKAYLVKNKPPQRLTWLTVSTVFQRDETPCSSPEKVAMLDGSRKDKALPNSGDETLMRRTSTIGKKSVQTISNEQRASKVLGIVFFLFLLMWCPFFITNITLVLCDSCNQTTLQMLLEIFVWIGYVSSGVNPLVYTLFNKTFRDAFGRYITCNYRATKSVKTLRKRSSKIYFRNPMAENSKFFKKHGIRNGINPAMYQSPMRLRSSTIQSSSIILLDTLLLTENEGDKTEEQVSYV
Chain of Beta-3 adrenergic receptor (P13945 whole entry): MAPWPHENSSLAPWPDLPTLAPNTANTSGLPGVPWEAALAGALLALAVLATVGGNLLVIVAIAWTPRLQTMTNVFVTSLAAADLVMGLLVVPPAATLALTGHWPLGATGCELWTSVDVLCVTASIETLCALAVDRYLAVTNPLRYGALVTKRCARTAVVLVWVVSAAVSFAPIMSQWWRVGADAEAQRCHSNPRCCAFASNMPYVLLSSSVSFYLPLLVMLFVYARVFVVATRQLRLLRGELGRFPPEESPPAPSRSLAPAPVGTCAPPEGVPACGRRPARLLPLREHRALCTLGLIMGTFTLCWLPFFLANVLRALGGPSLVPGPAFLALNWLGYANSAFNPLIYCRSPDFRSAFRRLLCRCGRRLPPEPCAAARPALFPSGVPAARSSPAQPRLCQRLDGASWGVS
Chain of Histamine H2 receptor (P25021 whole entry): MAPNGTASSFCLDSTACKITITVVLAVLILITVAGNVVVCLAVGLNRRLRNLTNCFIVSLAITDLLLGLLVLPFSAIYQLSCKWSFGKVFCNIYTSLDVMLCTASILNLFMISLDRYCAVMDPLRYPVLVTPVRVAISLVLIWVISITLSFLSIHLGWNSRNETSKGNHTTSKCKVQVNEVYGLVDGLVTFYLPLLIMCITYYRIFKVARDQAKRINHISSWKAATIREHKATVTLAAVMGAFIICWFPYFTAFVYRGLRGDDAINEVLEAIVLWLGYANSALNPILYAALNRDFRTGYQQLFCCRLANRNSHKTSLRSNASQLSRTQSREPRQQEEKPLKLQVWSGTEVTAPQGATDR

Consider `COCc1c(C(C)C)nc(C(C)C)c(/C=C/[C@@H](O)C[C@@H](O)CC(=O)O)c1-c1ccc(F)cc1` [CERIVASTATIN], for which the IC50 result (in experiment [1]; in experiment [2]; in experiment [3]; in experiment [4]; in experiment [5]; at Thromboxane-A synthase) was “Not Active” each time. Besides, the IC50 entry (in experiment [6]; on D(3) dopamine receptor; at D(4) dopamine receptor; in experiment [7]; in experiment [8]; in experiment [9]) was “Not Active” throughout. For the same compound, the IC50 result (against Glycine receptor; against Histamine H2 receptor; in experiment [10]; in experiment [11]) was “Not Active” throughout. The Ki entry in experiment [1], in experiment [3], in experiment [7], in [8], in experiment [9] and in [10] was “Not Active” throughout. Also, the Ki entry in experiment [11] is “Not Active”.
With `CN(C)CCCC1(c2ccc(F)cc2)OCc2cc(C#N)ccc21` (stereo not given) [CITALOPRAM], the IC50 entry (in experiment [1]; in [2]; in [3]; in experiment [5]; at Thromboxane-A synthase; in experiment [6]) was “Not Active” throughout. The IC50 result (on D(3) dopamine receptor; at D(4) dopamine receptor; in [7]; in experiment [8]; in [9]; against Glycine receptor) was “Not Active” throughout. Further, the IC50 entry (against Histamine H2 receptor; in experiment [10]; in [11]) was “Not Active” each time. For the same compound, the Ki result in experiment [1], in experiment [3], in [7], in [8], in [9] and in experiment [10] was “Not Active” in each case. Moreover, the Ki entry in experiment [11] is reported as “Not Active”. The pIC50 (in general, −log10 of the IC50, conventionally taken in molar units) in [4] is 5.74. For the same compound, the pKi (commonly −log10 of the Ki, conventionally taken in molar units) in experiment [4] was 5.93.
Take `Nc1nc2c(ncn2COC(CO)CO)c(=O)[nH]1` [GANCICLOVIR]: the IC50 result (in experiment [1]; in [2]; in experiment [3]; in [4]; in [5]; at Thromboxane-A synthase) was “Not Active” each time. The IC50 result (in experiment [6]; on D(3) dopamine receptor; at D(4) dopamine receptor; in [7]; in [8]; in experiment [9]) was “Not Active” throughout. In addition, the IC50 result (against Glycine receptor; at Histamine H2 receptor; in experiment [10]; in experiment [11]) was “Not Active” throughout. The Ki entry in [1], in [3], in [7], in experiment [8], in [9] and in [10] was “Not Active” throughout. Further, in experiment [11], the Ki result is on record as “Not Active”.
In the case of `CNCCC=C1c2ccccc2CCc2ccccc21` [NORTRIPTYLINE], the IC50 result (in [1]; in [2]; in experiment [3]; against Thromboxane-A synthase; in experiment [6]; on D(4) dopamine receptor) was “Not Active” in each case. For the same compound, the IC50 entry (in experiment [7]; in [8]; in [9]; at Glycine receptor; in experiment [11]) was “Not Active” each time. The Ki result in experiment [1], in experiment [3], in experiment [7], in [8], in [9] and in experiment [11] was “Not Active” in each case. Also, the pIC50 was 6.87 in experiment [4]; 6.26 in experiment [5] (read-out: IC50); 6.75 on D(3) dopamine receptor (read-out: IC50); 5.63 on Histamine H2 receptor (read-out: IC50); 5.41 in [10] (read-out: IC50). Besides, the negative logarithm of the Ki (pKi) in [4] is 7.07; in [5] (read-out: Ki) it was 6.59; on D(3) dopamine receptor (read-out: Ki) it was 7.21; at Histamine H2 receptor (read-out: Ki) it was 5.64; in [10] (read-out: Ki), 5.59.
In the case of `CC1COc2c(N3CCN(C)CC3)c(F)cc3c(=O)c(C(=O)O)cn1c23` (stereo not given) [OFLOXACIN], the IC50 entry (in experiment [1]; in experiment [2]; in experiment [3]; in experiment [4]; in [5]; against Thromboxane-A synthase) was “Not Active” in each case. Besides, the IC50 entry (in [6]; at D(3) dopamine receptor; at D(4) dopamine receptor; in experiment [7]; in [8]; in [9]) was “Not Active” throughout. Moreover, the IC50 entry (against Glycine receptor; against Histamine H2 receptor; in experiment [10]; in experiment [11]) was “Not Active” each time. Further, the Ki result in experiment [1], in experiment [3], in experiment [7], in experiment [8], in experiment [9] and in experiment [10] was “Not Active” throughout. Besides, the Ki entry in experiment [11] is “Not Active”.

Values taken from ChEMBL document CHEMBL1909046, “DrugMatrix in vitro pharmacology data”.
